Experimental data taken from ChEMBL document CHEMBL1156337, “Synthesis and evaluation of novel benzothiazole derivatives based on the bithiophene structure as potential radiotracers for beta-amyloid plaques in Alzheimer's disease” (Bioorg Med Chem, 2010).
pKi: −log10 of the molar value. Activity calls are given as the source filed them. The rule behind the calls is not given here.

Legend:
Mus musculus [1] = organism: Mus musculus; assay: Binding affinity to beta amyloid plaques in brain sections of TgC57 transgenic mouse transfected with APP and PS1 double mutant after 30 mins by autoradiography; type: tissue-based; conditions: tested as the 125I-labelled form
Mus musculus [2] = organism: Mus musculus; assay: Binding affinity to beta amyloid plaques in brain sections of TgC57 transgenic mouse transfected with APP and PS1 double mutant after 10 mins using thioflavin-S stain; type: tissue-based
[3] = Displacement of [125I]TZDM from amyloid beta (1 to 42) aggregates after 2 hrs
[4] = Displacement of [125I]TZDM from amyloid beta (1 to 40) aggregates after 2 hrs
Mus musculus [5] = organism: Mus musculus; assay: Binding affinity to beta amyloid plaques in brain sections of TgC57 transgenic mouse transfected with APP and PS1 double mutant after 30 mins by autoradiography in the presence of thioflavin-T; type: tissue-based; conditions: tested as the 125I-labelled form
[6] = Binding affinity to amyloid beta (1 to 42) aggregates after 2 hrs by saturation binding method
[7] = Binding affinity to amyloid beta (1 to 40) aggregates after 2 hrs by saturation binding method

Row | Activity (Mus musculus [1]) | Activity (Mus musculus [2]) | pKi [3] | pKi [4] | Activity (Mus musculus [5]) | pKi [6] | pKi [7] | SMILES
1 | Active | Active | 9.60 | 9.51 | inactive |  |  | Ic1ccc2nc(-c3ccc(-c4cccs4)s3)sc2c1
2 |  |  |  |  |  | 9.89 | 10.05 | CN(C)c1ccc(-c2nc3ccc([125I])cc3s2)cc1
3 | Active | Active | 9.96 | 9.21 | inactive |  |  | COc1ccc2nc(-c3ccc(-c4ccc(I)s4)s3)sc2c1
